From patent publication US10179770B2, “Quinolines derivatives as novel anticancer agents” (GENOSCIENCE PHARMA, priority 2013, dated 2019) come the findings set out here.

The EC50 is the concentration needed to bring the measured effect to its halfway point.

Data set [1] in a line: Encapsulation efficiency of XIX-2 in PLGA-PLGAPEG nanoparticules (HPLC). It counts as physicochemical. As to the method:
According to the general procedure described elsewhere (see for example Kumar, K. et al. J. Controlled Release 2013 (171) pp 208-215 and Danhier, F. et al. Int. J. Pharm. 2010 (392) pp 20-28) a nanoparticule PLGA-PLGAPEG (70/30, w/w) formulation of compound XIX-2 was prepared. Briefly, XIX-2 loaded PLGA (L:G 50:50, Mw 7,000-17,000, acid terminated) and PLGA-PEG (L:G 50:50, 15% of PEG, PLGA Mw 28,000; PEG Mw 5,000) nanoparticles were prepared by O/W emulsion-solvent evaporation technique. 35 mg of PLGA polymer and 15 mg of PLGA-PEG polymer was dissolved in 1 ml of a solution of XIX-2 in dichloromethane (10 mg/ml) and vortexed to obtain a uniform PLGA-PLGAPEG solution. Then, 2 ml of a 1% sodium cholate aqueous solution was added and the resulting biphasic system was sonicated (Branson sonifier, USA) at 70 W for 15 s. This emulsion was added dropwise to 100 ml of a 1% sodium cholate aqueous solution at 37° C. and stirred at 600 rpm for 1 h. The nanoparticle suspension was then washed twice in distilled water by centrifugation (Avanti-JE centrifuge, Beckman coulter, USA) for 60 min at 10,000 t·min^−1 and 4° C. Supernatants were collected to evaluate encapsulation efficiency of XIX-2. Empty nanoparticles were prepared with the same procedure except the addition of XIX-2 during the preparation of the formulation. The particles can be stored in solution at +4° C. or then freeze dried (Labconco, USA) and stored at 4° C. until further use.
Encapsulation efficiency estimated the amount of XIX-2 encapsulated in PLGA-PLGAPEG nanoparticules. Supernatants were used to measure the non-encapsulated XIX-2. Nanoparticules were dissolved in 1 ml of mobile phase to evaluate the encapsulated XIX-2. An HPLC system (Waters Breeze) with a diode array detector and multiple wavelength detector was used for the quantification of XIX-2 in supernatants and nanoparticles. […]
The coefficients of variation (CV) for intra- and inter-assay measurements were within 5%. The encapsulation efficiency of XIX-2 is given by [XIX-2 used−XIX-2 non-encapsulated)/XIX-2 used]×100 and XIX-2 recovery was calculated.

The subject of data set [2] is ALDH+ cancer stem cells (CSC) in MOLM-14 cell line. Put plainly: Aldefluor kit assay, ALDH+ compartment analysis. The conditions noted are these: for Aldefluor™ positive CSCs (% of control): 72 h; for Aldefluor positive CSCs (% of control): MOLM-14 cell line, 72 h incubation. Format: cell-based, human. The source says: Analysis of the of aldehyde dehydrogenase (ALDH) compartment and high activity level of aldehyde dehydrogenase activity (ALDH+) was used to detect tumor initiating cells (cancer stem cells, CSC) population. The Aldefluor™ kit assay (StemCell Technologies) allowed to assess the activity of drugs on CSC cells like in aa MOLM-14 acute myeloid leukemia cell line population. The Aldefluor™ kit assay was used according to the procedure described by the manufacturer. Briefly, MOLM-14 cell line was cultured in RPMI-1640 Medium supplemented with 10% v/v Fetal Bovine Serum (FBS), 1% Penicillin-Streptomycin and maintained at 37° C. with 5% CO2. 5·10^5 cells were used in this assay. Each compound was added at different concentrations (see table 13 and 14), and cell cultures were incubated for 72 h. Vehicle (H2O) was used as a control, and all compounds were tested in a constant percentage of vehicle. Cells obtained from cell culture were incubated for 45 minutes at 37° C. with Aldefluor™ buffer assay containing the Bodipy™-aminoacetaldehyde (BAAA), a fluorescent ALDH aldehyde substrate. ALDH converts the fluorescent substrate BAAA to the Bodipy™-aminoacetic acid (BAA) which is retained in the cell. An active efflux inhibitor is present in the Adelfluor™ assay buffer in order to avoid the active efflux from the cell of the substrate product ALDH dependent converted BAA. The fluorescent signal is directly proportional to the ALDH activity in the cells and is measured by flow cytometry. A negative control is used to measure the background fluorescence level. For such purpose, 4-(N,N-diethylamino)-benzaldehyde (DEAB) was used as selective ALDH inhibitor. A viability cell count was performed using LIVE/DEAD® Fixable Far Red Dead Cell Stain Kit (Invitrogen). The experimental data are analyzed using a computer program, Graphpad Prism (GraphPad Software, Inc. La Jolla, Calif.) and EC50 values were determined as the dose of compound required to reduce absorbance values to 50% of the signal obtained for vehicle treated cell cultures.

The test system of a further data set is MOLM-14 cell line. Put plainly: Growth inhibition assay of MOLM-14 (CellTiter-Glo, example 63). The conditions noted are these: Homo sapiens, 48 h, method of example 63. It counts as cell-based. As to the method: MOLM-14 cell line was cultured in RPMI-1640 Medium supplemented with 10% v/v Fetal Bovine Serum (FBS), 1% Penicillin-Streptomycin and maintained at 37° C. with 5% CO2. 10,000 cells were plated onto 96-well plates immediately before the assay.
Each compound was added at different concentrations (combinations of six concentrations) to each well, and cell cultures were incubated for 48 h. Vehicle (H2O) was used as a control, and all compounds were tested in a constant percentage of vehicle. Cell outgrowth was measured using the CellTiter-Glo luminescent cell viability assay as described by the manufacturer (Promega, Ref G7571 Madison, Wis., USA) using a Centro (Berthold, France) plate reader.
In each experiment, each point represents the average of triplicates in cell culture.
The experimental data are analyzed using a computer program, Graphpad Prism (GraphPad Software, Inc. La Jolla, Calif.) and EC50 values were determined as the dose of compound required to reduce absorbance values to 50% of the signal obtained for vehicle treated cell cultures.

Another data set relates to Kasumi-1. Put plainly: CellTiter-Glo cell viability assay (example 57). Format: cell-based. The conditions noted are these: Homo sapiens; Kasumi-1 (Leukemia); Cell Titer-Glo; 72 h. As to the method:
(§1) The human breast cancer cell line SkBr3 and the human metastatic prostate carcinoma cell line LnCAP were cultured in Dulbecco's modified Eagle's medium (DMEM) supplemented with 10% fetal bovine serum (FBS) and 0.1% sodium pyruvate. The human myelocytic cell line U937 and NB4 were maintained in RPMI medium 1640 1× (Gibco 21875-034) supplemented with 10 % Fetal Bovine Serum (FBS, Eurobio S39130-0808) Kasumi and SKM-1 were maintained in RPMI medium 1640 1× (Gibco 21875-034) supplemented with 20 % Fetal Bovine Serum (FBS, Eurobio S39130-0808), HL60 was maintained in Iscove's modified Dulbecco's medium 1× (IMDM, Gibco 21890) supplemented with 20% Fetal Bovine Serum (FBS, Eurobio S39130-0808), cell line was maintained in MEM alpha medium (Gibco 22561-021) supplemented with 10% FBS at 37° C. with 5% CO2. Cell outgrowth was measured using the CellTiter-Glo luminescent cell viability assay as described by the manufacturer (Promega, Ref G7571 Madison, Wis., USA) using a FLUOstar optima luminometer (BMG Labtech, Ortenberg, Germany).
(§2) Briefly, for adherent cells, 10^4 cells were plated onto 96-well plates (white with clear bottom (3610, Corning Costar) in 100 μL of media per well and were allowed to grow overnight before the assay. For cells growing in suspension, 10^4 cells were plated onto 96-well plates immediately before the assay. […] Vehicle (DMSO) was used as a control, and all compounds were tested in a constant percentage of DMSO (1%). After addition of 50 μL of CellTiter GLO, luminescence was measured using a Centro luminometer (Berthold). EC50 values were determined as the dose of compound required to reduce luminescent values to 50% of the signal obtained for untreated cell cultures. All experiments were done in duplicate and repeated two independent times.
For orientation: ATP-based viability assays read luminescence as a measure of living cells.

The test system of the next data set is MOLM-14. Put plainly: CellTiter-Glo cell viability assay (example 57). It counts as cell-based. Conditions: Homo sapiens; MOLM-14 (Leukemia); Cell Titer-Glo; 72 h. As for the experimental part: as §1, §2
Another data set relates to KG-1. Put plainly: CellTiter-Glo cell viability assay (example 57). The conditions noted are these: Homo sapiens; KG-1 (Leukemia); Cell Titer-Glo; 72 h. Format: cell-based. As to the method: as §1, §2
The test system of the next data set is U937. Put plainly: CellTiter-Glo cell viability assay (example 57). Format: cell-based. The conditions noted are these: Homo sapiens, U-937; U937 (Leukemia); Cell Titer-Glo; 72 h. As to the method: as §1, §2
Another data set has as its system NB4. Put plainly: CellTiter-Glo cell viability assay (example 57). Conditions: Homo sapiens, NB-4; NB4 (Leukemia); Cell Titer-Glo; 72 h. Format: cell-based. As to the method: as §1, §2
Another data set deals with HL60. Put plainly: CellTiter-Glo cell viability assay (example 57). Format: cell-based. The conditions noted are these: Homo sapiens, HL-60; HL60 (Leukemia); Cell Titer-Glo; 72 h. As to the method:
as §1, §2

The subject of a further data set is SKM-1. The data set can be described thus: CellTiter-Glo cell viability assay (example 57). Conditions: Homo sapiens; SKM-1 (Leukemia); Cell Titer-Glo; 72 h. Format: cell-based. As for the experimental part: as §1, §2
Another data set relates to BxPC-3. The data set can be described thus: Cell viability assay, pancreatic cancer cell lines. Format: cell-based. Conditions: Homo sapiens; BxPC-3 (Pancreas); 48 h. As to the method:
MiaPaCa-2, Panc-1 cells were grown in Dulbecco's modified eagle's medium (DMEM) (Gibco) supplemented with 10% fetal bovine serum (FBS), while BxPC-3, Capan-1, Capan-2 cells were grown in Roswell Park Memorial Institute 1640 (RPMI 1640) (Gibco) supplemented with 10% FBS. Gemcitabine (Gemzar) was purchased from Lilly France S.A.S (Suresnes, France). (3-(4,5-dimethylthiazol-2-yl)-2,5diphenyltetrazolium bromide, MTT) was purchased from Sigma-Aldrich.
BxPC-3, MiaPaCa-2, Panc-1 cells were seeded into a 96-well plate at 10,000 10,000 15,000 cells per well respectively, while Capan-1 and Capan-2 cells at 20,000 cells per well and allowed to adhere overnight. Then the culture medium was removed and replaced with fresh media alone as control or containing various concentrations of different compounds. In dose-dependent assay, the cells were treated with compound XIX-3 at the concentration varying from 0.1 μM to 100 μM while the cells being cultured by fresh media alone were used as control. After 48 h treatment, the number of remained viable cells was determined by (3-(4,5-dimethylthiazol-2-yl)-2,5diphenyltetrazolium bromide, MTT) colorimetric assay (see Sigma Aldrich protocol and Riss T. L. et al. Cell Viability Assays in Assay Guidance Manual 2013 ppl.). All experiments were done in duplicate and repeated two independent times.

A further data set concerns LNCaP. The data set can be described thus: CellTiter-Glo cell viability assay (example 57). The conditions noted are these: Homo sapiens; LNCaP (Prostate); Cell Titer-Glo; 72 h. Format: cell-based. As to the method:
as §1, §2

For the next data set, the system named is SkBr3. Put plainly: CellTiter-Glo cell viability assay (example 57). It counts as cell-based. The conditions noted are these: Homo sapiens, SK-BR-3; SkBr3 (Breast); Cell Titer-Glo; 72 h. As for the experimental part: as §1, §2
Another data set has as its system HepG2. The data set can be described thus: CellTiter-Glo cell viability assay (example 57). Format: cell-based. Conditions: Homo sapiens; HepG2 (Liver); Cell Titer-Glo; 72 h. As to the method: as §1, §2
A further data set has as its system HT29. The data set can be described thus: CellTiter-Glo cell viability assay (example 57). It counts as cell-based. Conditions: Homo sapiens, HT-29; HT29 (Colon); Cell Titer-Glo; 72 h.

For the compound `CCN(CC)C1CCN(C(C)c2cc(-c3ccccc3)nc3ccccc23)CC1` (stereo not drawn) [XIX-2, 2-phenyl-4-{1-[4-(N,N-diethylamino)-piperidin-1-yl]-eth-1-yl}quinoline], the “Concentration of XIX-2 in nanoparticules dispersion” value in data set [1] (PLGA-PLGAPEG (70/30, w/w) nanoparticules, HPLC) was found to be 3210 µM. For the same compound, in data set [1] (PLGA-PLGAPEG nanoparticules, [XIX-2 encapsulated/PLGA-PLGAPEG used] × 100), the Loading is given as 2.5%. This compound also displayed an Encapsulation efficiency in data set [1] (PLGA-PLGAPEG nanoparticules; [XIX-2 used − XIX-2 nonencapsulated)/XIX-2 used] × 100) of 9.4%.

Consider `Nc1ccn([C@@H]2O[C@H](CO)[C@@H](O)[C@@H]2O)c(=O)n1` [Cytarabine], for which the “Aldefluor™ positive CSCs (% of control)” value in data set [2] (MOLM-14, 1 μM) was 130 % of control; in data set [2] (MOLM-14, 3 μM) it was 116 % of control. For the same compound, the “Activity against CSCs in Aldefluor™ assay (proportion of CSCs)” value in data set [2] (MOLM-14, dose dependent, Cytarabine up to 3-fold its EC50) is listed as “not active against CSCs”. Moreover, the “Aldefluor positive CSCs (% of control)” value in data set [2] (1 μM) is given as 130 % of control; in [2] (3 μM), 116 % of control. For the same compound, the half-maximal effective concentration (EC50) was 1 µM in the data set on MOLM-14 cell line; 0.15 µM in the data set with Kasumi-1; 3 µM in the data set on MOLM-14; 0.15 µM with KG-1; 0.03 µM with U937; 0.02 µM with NB4. Moreover, the EC50 in the data set on HL60 and in the data set with SKM-1 was 2 µM each time.

`Nc1ccn([C@@H]2O[C@H](CO)[C@@H](O)C2(F)F)c(=O)n1` [Gemcitabine, gemcitabine]: the concentration for a half-maximal effect (EC50) with BxPC-3 was 0.02 µM; in the data set on LNCaP, 0.04 µM; in the data set on SkBr3, 0.2 µM; in the data set on HepG2, 0.02 µM; with HT29, 0.2 µM.
